# Assay results reported in US20200270233A1, “DHFR INHIBITORS, COMPOSITIONS, AND METHODS RELATED THERETO” (Vyera Pharmaceuticais LLC, priority 2017, published 2020).
# Read-outs that look alike come from different tables or passages of the source.
# Experiments:
# T. gondii DHFR (tgDHFR) = target: T1, T. gondii DHFR (tgDHFR) (Toxoplasma gondii, UniProt Q07422); experiment: biochemical; conditions: for Average DHFR selectivity (h/tg): hDHFR IC50/tgDHFR IC50
# T1 sequence (Q07422 1-610): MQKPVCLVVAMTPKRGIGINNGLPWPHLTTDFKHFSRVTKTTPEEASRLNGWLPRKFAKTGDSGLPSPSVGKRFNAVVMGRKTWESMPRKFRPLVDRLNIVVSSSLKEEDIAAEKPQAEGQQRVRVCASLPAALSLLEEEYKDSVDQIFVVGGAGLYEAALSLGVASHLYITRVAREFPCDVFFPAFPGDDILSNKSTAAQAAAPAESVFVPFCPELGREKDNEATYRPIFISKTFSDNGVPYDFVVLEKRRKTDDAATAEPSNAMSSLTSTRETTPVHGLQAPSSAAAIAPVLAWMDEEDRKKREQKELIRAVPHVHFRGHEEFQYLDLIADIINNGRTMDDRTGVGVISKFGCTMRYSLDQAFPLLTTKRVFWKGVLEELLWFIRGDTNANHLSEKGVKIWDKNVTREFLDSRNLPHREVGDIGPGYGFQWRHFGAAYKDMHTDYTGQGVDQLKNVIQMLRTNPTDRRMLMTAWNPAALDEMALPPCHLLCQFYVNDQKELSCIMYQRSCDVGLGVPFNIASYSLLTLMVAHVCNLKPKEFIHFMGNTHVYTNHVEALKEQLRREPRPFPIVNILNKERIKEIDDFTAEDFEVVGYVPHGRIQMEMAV
# hDHFR = target: T2, hDHFR (Homo sapiens, UniProt P00374); format: biochemical
# T2 sequence (P00374 1-187): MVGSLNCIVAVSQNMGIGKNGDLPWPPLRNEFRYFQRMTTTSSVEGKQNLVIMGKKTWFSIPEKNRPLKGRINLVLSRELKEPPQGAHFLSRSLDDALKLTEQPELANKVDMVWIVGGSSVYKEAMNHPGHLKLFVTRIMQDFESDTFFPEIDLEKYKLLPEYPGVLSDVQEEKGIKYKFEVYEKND
# [1] = Table 16, pIC50 = -log10 IC50, at least three replicates, read-out: tgDHFR pIC50-DHFR primary assay (converted)
# [2] = Table 16, pIC50 = -log10 IC50, at least three replicates, read-out: hDHFR pIC50-DHFR primary assay (converted)
# [3] = Table 18, pIC50 = -log10 IC50, at least three replicates, read-out: hDHFR pIC50-DHFR primary assay (converted)
compound,measurement,setting,value
"COc1ncc(-c2cccc(N3CC=C(c4cnc(N)nc4N)CC3)c2)cn1 [Compound 182, 5-(1-(3-(2-methoxypyrimidin-5-yl)phenyl)-1,2,3,6-tetrahydropyridin-4-yl)pyrimidine-2,4-diamine]",Average DHFR selectivity (h/tg),T. gondii DHFR (tgDHFR); Table 16,37.84
same,IC50,T. gondii DHFR (tgDHFR); [1],2.04 nM
same,IC50,hDHFR; [2],77.6 nM
"Nc1ncc(N2CCN(c3cccc(-c4cnc(O)nc4)n3)CC2)c(N)n1 [Compound 181, 5-(6-(4-(2,4-diaminopyrimidin-5-yl)piperazin-1-yl)pyridin-2-yl)pyrimidin-2-ol]",Average DHFR selectivity (h/tg),T. gondii DHFR (tgDHFR); Table 16,13.94
same,IC50,T. gondii DHFR (tgDHFR); [1],1.2 nM
same,IC50,hDHFR; [2],16.6 nM
Nc1ncc(N2CCN(c3cccc(-c4cnc(C5CC5)nc4)c3)CC2)c(N)n1 [Compound 86],IC50,hDHFR; [3],832 nM
"CCc1nc(N)nc(N)c1N1CCN(c2ccc(F)cc2)CC1 [Compound 35, 6-ethyl-5-(4-(4-fluorophenyl)piperazin-1-yl)pyrimidine-2,4-diamine]",IC50,T. gondii DHFR (tgDHFR),6.92 nM
"CC1CN(c2cccc(-c3ccccc3)c2)CCN1c1cnc(N)nc1N (stereo not drawn) [Compound 27, 5-(4-([1,1′-biphenyl]-3-yl)-2-methylpiperazin-l-yl)pyrimidine-2,4-diamine]",IC50,T. gondii DHFR (tgDHFR),138 nM
same,IC50,hDHFR; [2],30200 nM
"C[C@H]1CN(c2cnc(N)nc2N)CCN1c1cccc(C2=CCOCC2)c1 [Compound 192, (S)-5-(4-(3-(3,6-dihydro-2H-pyran-4-yl)phenyI)-3-methylpiperazin-1-yl)pyrimidine-2,4-diamine]",Average DHFR selectivity (h/tg),T. gondii DHFR (tgDHFR); Table 16,17.89
same,IC50,T. gondii DHFR (tgDHFR); [1],27.5 nM
same,IC50,hDHFR; [2],479 nM
COc1ncc(-c2cncc(N3CCN(c4cnc(N)nc4N)CC3)c2)cn1 [Compound 162],Average DHFR selectivity (h/tg),T. gondii DHFR (tgDHFR); Table 16,117.08
same,IC50,T. gondii DHFR (tgDHFR); [1],12.3 nM
same,IC50,hDHFR; [2],1450 nM
C[C@@H]1CN(c2cnc(N)nc2N)CCN1c1cccc(C2CCOCC2)c1 [Compound 176],Average DHFR selectivity (h/tg),T. gondii DHFR (tgDHFR); Table 16,47.03
same,IC50,T. gondii DHFR (tgDHFR); [1],2.29 nM
same,IC50,hDHFR; [2],107 nM
"C[C@@H]1CN(c2cnc(N)nc2N)CCN1c1cccc(C2=CCOCC2)c1 [Compound 194, (R)-5-(4-(3-(3,6-dihydro-2H-pyran-4-yl)phenyl)-3-methylpiperazin-1-yl)pyrimidine-2,4-diamine]",Average DHFR selectivity (h/tg),T. gondii DHFR (tgDHFR); Table 16,18.10
same,IC50,T. gondii DHFR (tgDHFR); [1],1.82 nM
same,IC50,hDHFR; [2],33.1 nM
COc1ncc(-c2cccc(N3CCN(c4cnc(N)nc4N)CC3)n2)cn1 [Compound 158],Average DHFR selectivity (h/tg),T. gondii DHFR (tgDHFR); Table 16,17.78
same,IC50,T. gondii DHFR (tgDHFR); [1],1.02 nM
same,IC50,hDHFR; [2],18.2 nM
COc1ncc(-c2cc(N3CCN(c4cnc(N)nc4N)CC3)ccn2)cn1 [Compound 163],Average DHFR selectivity (h/tg),T. gondii DHFR (tgDHFR); Table 16,23.00
same,IC50,T. gondii DHFR (tgDHFR); [1],6.76 nM
same,IC50,hDHFR; [2],155 nM
Nc1ncc(N2CCN(c3cccc(-c4cccc(F)c4)c3)CC2)c(N)n1 [Compound 64],IC50,T. gondii DHFR (tgDHFR),11.5 nM
same,IC50,hDHFR; [2],1070 nM
Nc1ncc(N2CCN(c3cccc(-c4cnc(Cl)nc4)c3)CC2)c(N)n1 [Compound 100],IC50,T. gondii DHFR (tgDHFR),6.76 nM
same,IC50,hDHFR; [2],1320 nM
same,IC50,hDHFR; [3],1320 nM
"CCCc1nc(N)nc(N)c1N1CCC(c2ccccc2)CC1 [Compound 51, 5-(4-phenylpiperidin-1-yl)-6-propylpyrimidine-2,4-diamine]",IC50,T. gondii DHFR (tgDHFR),11.7 nM
same,IC50,hDHFR; [2],2450 nM
"Nc1ncc(N2CCN(c3ccc(Cl)c(Cl)c3)CC2)c(N)n1 [Compound 1, 5-(4-(3,4-dichlorophenyl)piperazin-1-yl)pyrimidine-2,4-diamine]",IC50,T. gondii DHFR (tgDHFR),13.8 nM
same,IC50,hDHFR; [2],75.9 nM
"CCc1nc(N)nc(N)c1N1CCN(c2cccc(C)c2)CC1 [Compound 31, 6-ethyl-5-(4-(m-tolyl)piperazin-1-yl)pyrimidine-2,4-diamine]",IC50,T. gondii DHFR (tgDHFR),3.47 nM
same,IC50,hDHFR; [2],417 nM
"CCc1nc(N)nc(N)c1N1CCN(c2ccc(C)cc2)CC1 [Compound 39, 6-ethyl-5-(4-(p-tolyl)piperazin-1-yl)pyrimidine-2,4-diamine]",IC50,T. gondii DHFR (tgDHFR),12.3 nM
same,IC50,hDHFR; [2],1740 nM
CCc1ncc(-c2cccc(N3CCN(c4cnc(N)nc4N)CC3)c2)cn1 [Compound 95],IC50,T. gondii DHFR (tgDHFR),7.24 nM
same,IC50,hDHFR; [2],1580 nM
same,IC50,hDHFR; [3],1410 nM
"CCc1nc(N)nc(N)c1N1CCN(c2ccccc2)CC1 [Compound 28, 6-ethyl-5-(4-phenylpiperazin-1-yl)pyrimidine-2,4-diamine]",IC50,T. gondii DHFR (tgDHFR),5.75 nM
same,IC50,hDHFR; [2],1350 nM
"Nc1ncc(N2CCN(c3cccc(Br)c3)CC2)c(N)n1 [Compound 11, 5-(4-(3-bromophenyl)piperazin-1-yl)pyrimidine-2,4-diamine]",IC50,T. gondii DHFR (tgDHFR),11.7 nM
same,IC50,hDHFR; [2],437 nM
"CCCc1nc(N)nc(N)c1N1CCN(c2ncc(C)cn2)CC1 [Compound 59, 5-(4-(5-methylpyrimidin-2-yl)piperazin-1-yl)-6-propylpyrimidine-2,4-diamine]",IC50,T. gondii DHFR (tgDHFR),70.8 nM
same,IC50,hDHFR; [2],8130 nM
COc1ncc(-c2cccc(N3CCN(c4cnc(N)nc4N)CC3)c2F)cn1 [Compound 159],Average DHFR selectivity (h/tg),T. gondii DHFR (tgDHFR); Table 16,80.32
same,IC50,T. gondii DHFR (tgDHFR); [1],30.2 nM
same,IC50,hDHFR; [2],2340 nM
"CCCc1nc(N)nc(N)c1N1CCN(c2ccc(OC)cn2)CC1 [Compound 60, 5-(4-(5-methoxypyridin-2-yl)piperazin-1-yl)-6-propylpyrimidine-2,4-diamine]",IC50,T. gondii DHFR (tgDHFR),20 nM
same,IC50,hDHFR; [2],2880 nM
COc1ncc(-c2cc(N3CCN(c4cnc(N)nc4N)CC3)ccc2F)cn1 [Compound 160],Average DHFR selectivity (h/tg),T. gondii DHFR (tgDHFR); Table 16,156.11
same,IC50,T. gondii DHFR (tgDHFR); [1],2.51 nM
same,IC50,hDHFR; [2],389 nM
N#Cc1cccc(-c2cccc(N3CCN(c4cnc(N)nc4N)CC3)c2)c1 [Compound 67],IC50,T. gondii DHFR (tgDHFR),3.89 nM
same,IC50,hDHFR; [2],302 nM
CNc1ncc(-c2cccc(N3CCN(c4cnc(N)nc4N)CC3)c2)cn1 [Compound 97],IC50,T. gondii DHFR (tgDHFR),5.62 nM
same,IC50,hDHFR; [2],741 nM
"CCc1nc(N)nc(N)c1N1CCN(c2ccncc2)CC1 [Compound 36, 6-ethyl-5-(4-(pyridin-4-yl)piperazin-1-yl)pyrimidine-2,4-diamine]",IC50,T. gondii DHFR (tgDHFR),269 nM
same,IC50,hDHFR; [2],30200 nM
"Cc1ncc(-c2cccc(C3CCN(c4cnc(N)nc4N)CC3)c2)cn1 [Compound 113, 5-(4-(3-(2-methylpyrimidin-5-yl)phenyl)piperidin-1-yl)pyrimidine-2,4-diamine]",IC50,T. gondii DHFR (tgDHFR),6.17 nM
same,IC50,hDHFR; [2],372 nM
"Nc1ncc(N2CCN(c3cccc(C4CCOCC4)c3)CC2)c(N)n1 [Compound 110, 5-(4-(3-(tetrahydro-2H-pyran-4-yl)phenyl)piperazin-1-yl)pyrimidine-2,4-diamine]",IC50,T. gondii DHFR (tgDHFR),34.7 nM
same,IC50,hDHFR; [2],6170 nM
same,IC50,"hDHFR; Table 20, pIC50 = -log10 IC50, at least three replicates, read-out: hDHFR pIC50-DHFR primary assay (converted)",7760 nM
COc1ncccc1-c1cccc(N2CCN(c3cnc(N)nc3N)CC2)c1 [Compound 80],IC50,T. gondii DHFR (tgDHFR),6.17 nM
same,IC50,hDHFR; [2],1020 nM
C[C@H]1CN(c2cnc(N)nc2N)CCN1c1cccc(C2CCOCC2)c1 [Compound 174],Average DHFR selectivity (h/tg),T. gondii DHFR (tgDHFR); Table 16,30.69
same,IC50,T. gondii DHFR (tgDHFR); [1],31.6 nM
same,IC50,hDHFR; [2],955 nM
"CCc1nc(N)nc(N)c1N1CCN(c2cccc(OC)c2)CC1 [Compound 33, 6-ethyl-5-(4-(3-methoxyphenyl)piperazin-1-yl)pyrimidine-2,4-diamine]",IC50,T. gondii DHFR (tgDHFR),4.37 nM
same,IC50,hDHFR; hDHFR pIC50-DHFR primary assay,525 nM
Nc1ncc(N2CCN(c3cccc(-c4cncnc4)c3)CC2)c(N)n1 [Compound 74],IC50,hDHFR; [3],3090 nM
CN(C)c1ncc(-c2cccc(N3CCN(c4cnc(N)nc4N)CC3)c2)cn1 [Compound 96],IC50,T. gondii DHFR (tgDHFR),10 nM
same,IC50,hDHFR; [2],1150 nM
"Cc1nc(N)nc(N)c1N1CCN(c2ccccc2)CC1 [Compound 47, 6-methyl-5-(4-phenylpiperazin-1-yl)pyrimidine-2,4-diamine]",IC50,T. gondii DHFR (tgDHFR),26.3 nM
same,IC50,hDHFR; [2],2240 nM
"CCc1nc(N)nc(N)c1N1CCN(c2ccc(C)cn2)CC1 [Compound 45, 6-ethyl-5-(4-(5-methylpyridin-2-yl)piperazin-1-yl)pyrimidine-2,4-diamine]",IC50,T. gondii DHFR (tgDHFR),5.89 nM
same,IC50,hDHFR; [2],794 nM
Nc1nc(N)c(N2CCN(c3ccccc3)CC2)c(CC2CC2)n1 [Compound 106],IC50,T. gondii DHFR (tgDHFR),27.5 nM
same,IC50,hDHFR; [2],5890 nM
COc1ncc(-c2ccc(F)c(N3CCN(c4cnc(N)nc4N)CC3)c2)cn1 [Compound 164],Average DHFR selectivity (h/tg),T. gondii DHFR (tgDHFR); Table 16,65.26
same,IC50,T. gondii DHFR (tgDHFR); [1],8.71 nM
same,IC50,hDHFR; [2],562 nM
"Nc1ncc(N2CCN(c3cccc(N4CCOCC4)c3)CC2)c(N)n1 [Compound 25, 5-(4-(3-morpholinophenyl)piperazin-1-yl)pyrimidine-2,4-diamine]",IC50,T. gondii DHFR (tgDHFR),138 nM
same,IC50,hDHFR; [2],14100 nM
"Cc1ncc(-c2cccc(N3CCN(c4cnc(N)nc4N)CC3)c2)cn1 [Compound 69, 5-(4-(3-(2-methylpyrimidin-5-yl)phenyl)piperazin-1-yl)pyrimidine-2,4-diamine]",IC50,T. gondii DHFR (tgDHFR),4.47 nM
"CCc1nc(N)nc(N)c1N1CCN(c2ccccn2)CC1 [Compound 34, 6-ethyl-5-(4-(pyridin-2-yl)piperazin-1-yl)pyrimidine-2,4-diamine]",IC50,T. gondii DHFR (tgDHFR),6.46 nM
same,IC50,hDHFR; [2],1020 nM
